Measured values: patent US20250002465A1, “TRIMERIC COPPER CATALYSTS, INTERMEDIATES FOR MAKING SUCH CATALYSTS AND METHOD FOR PREPARING A CYCLOADDITION COMPOUND” (University of Kentucky Research Foundation, priority 2023, published 2025)

Experiments:
[1] = Stability of the complex to air, moisture and H2O2 (colour, EPR, UV-visible spectroscopy); format: physicochemical; conditions: for Colour change in the presence of air or moisture: over the course of weeks, solid or solution
Method: FIG. 2 illustrates Left: UV-vis absorbance spectra of 3+(CH3CN)4CuPF6 in H2O after 18 hours with 5 molar equivalents of H2O2. Right: UV-vis absorbance spectra after addition of N-methylimidazole to 3+(CH3CN)4CuPF6+5 molar equivalents of H2O2 in H2O after 18 hours incubation.
One of the most important aspects of catalysts for the biologically compatible CuAAC reaction is the ability to perform the reaction while not forming any ROS. Most Cu (I) complexes can be rapidly oxidized by oxygen to Cu (II) and form O2—, one of the first ROS that can then go on to react in myriad ways. […] To further verify this, we performed EPR measurements on solutions of 6 in the absence and presence of H2O2.
We then tested the chemical oxidation of solutions of 7 by UV-visible spectroscopy […]. Increasing amounts of H2O2 were added and the absorption spectrum was measured (FIG. 2).
Without the addition of oxidant, an absorption peak at 280 nm is the lowest energy feature in the spectrum. Aqueous solutions of Cu^2+ ions absorb visible light, typically due to low energy d-d transitions. Therefore, if Cu^2+ was formed, we would expect to observe the appearance of a new absorption in the visible region.

[2] = Cyclic voltammetry, oxidation potential; format: physicochemical
[3] = Catalytic CuAAC reaction in water (phenylacetylene, benzyl azide), conversion by GC
[4] = test system: MDA-MB-468; assay: Cytotoxicity, MTT assay; conditions: read-out: IC50 (cytotoxicity), MDA-MB-468 cells, 72 hours
[5] = test system: SUM-159; assay: Cytotoxicity, MTT assay; format: cell-based; conditions: SUM-159 cells, 72 hours
Method: FIG. 5 is a-b) Effect of 6 and 7 on cell viability in TNBC cells treated with the complexes for 72 hours. Mean±s.e.m. n=3. c) Structure of AuDTC-alkyne used for click experiment.
We first evaluated the cytotoxicity of the complexes (6 and 7) in triple-negative breast cancer cells, MDA-MB-468 and SUM-159 using MTT assay.

[6] = test system: MDA-MB-468 cells; assay: Intracellular Cu(I)-catalyzed click chemistry and mitochondria colocalization, confocal microscopy; format: cell-based; conditions: 100 μM catalyst, no THPTA or ascorbate
[7] = CH2Cl2, glassy carbon working electrode
[8] = catalyst concentration 20 mM, room temperature, 4 hr, average of two runs

For “(Cis,cis-1,3,5-cyclohexanetribenzimidazole-1-(2-(2-methoxyethoxy)ethyl)-2-yl)2(Cu(I)PF6)3 [compound 7]”, the “Change of UV-visible absorption spectrum with N-methylimidazole and H2O2” value ([1]; in-situ formed 7, five equivalents of H2O2 plus N-methylimidazole) was “no change in the absorption spectrum”, the “Colour change in the presence of air or moisture” value [1] was “did not change color” and the “Change of UV-visible absorption spectrum with H2O2” value ([1]; up to five molar equivalents of peroxide, 18 hours, room temperature) was “no appreciable change in the absorption spectrum”. The Oxidation wave ([2]; 0.1 M LiClO4 in H2O, Hg/Hg2SO4 reference) was “did not observe an oxidation wave”, the “Irreversible reduction wave (Cu+/Cu0)” value ([2]; CH2Cl2) was roughly 0 V vs. SCE and the Oxidation wave [2, 7] was 1.85 V vs SCE. The Conversion ([3]; 50 mM loading, water, 35° C., 1 hour) was 75%, the Conversion ([3]; catalyst concentration 0.5 μM, water, 35° C., 18 hr) was 33% and the Conversion ([3]; catalyst concentration 0.5 μM, water, ambient conditions, 18 hours) was 6%. For the same compound, the Conversion ([3]; catalyst concentration 1.0 μM, water, 35° C., 18 hr) was 64%, the Conversion ([3]; catalyst concentration 1 μM, water, ambient conditions, 18 hours) was 8% and the Conversion ([3]; catalyst concentration 5 μM, water, 35° C., 18 hr) was roughly 88%. For the same compound, the Conversion ([3]; catalyst concentration 5 μM, water, ambient conditions, 18 hours) was roughly 13%, the Conversion ([3]; catalyst concentration 10 μM, water, 35° C., 18 hr) was “quantitative” and the Conversion ([3]; catalyst concentration 10 μM, water, ambient conditions, 18 hours) was roughly 13%. For the same compound, the Conversion ([3]; catalyst concentration 50 μM, water, ambient conditions, 18 hours) was roughly 36%, the IC50 [4] was 78.6 µM and the IC50 [5] was greater than 100 µM. The “Click reaction between AuDTC-alkyne and azide fluorescein in cells” value [6] was “effectively catalyzed”.

With “(Cis,cis-1,3,5-cyclohexanetribenzimidazole-1-butyl-2-yl)2(Cu(I)PF6)3 [compound 6]” the “Colour change in the presence of air or moisture” value [1] was “did not change color”, the “EPR active species (Cu2+) after H2O2 addition” value ([1]; solution, EPR) was “no EPR active species” and the Conversion [3, 8] was 98%. The IC50 [4] was 46.7 µM and the IC50 [5] was 84.1 µM.

In the case of `CCCCn1c2ccccc2nc1[C@H]1C[C@@H](c2nc3ccccc3n2CCCC)C[C@@H](c2nc3ccccc3n2CCCC)C1` [compound 2, Cis,cis-1,3,5-cyclohexanetribenzimidazole-1-butyl-2-yl], the Conversion [3, 8] is reported as “nearly quantitative”.

`OCCCn1cc(CN(Cc2cn(CCCO)nn2)Cc2cn(CCCO)nn2)nn1.[Cu]` [THPTA, Cu tris-(hydroxypropyltriazolyl)-methylamine, reference compound] gave an IC50 [4] of 22.4 µM.

For `COCCOCCn1c2ccccc2nc1[C@H]1C[C@@H](c2nc3ccccc3n2CCOCCOC)C[C@@H](c2nc3ccccc3n2CCOCCOC)C1` [compound 3, Cis,cis-1,3,5-cyclohexanetribenzimidazole-1-(2-(2-methoxyethoxy)ethyl)-2-yl], the Oxidation wave [2, 7] was “irreversible oxidation near the same potential” and the Conversion [3, 8] was “nearly quantitative”.

In the case of `c1ccc2[nH]c([C@H]3C[C@@H](c4nc5ccccc5[nH]4)C[C@@H](c4nc5ccccc5[nH]4)C3)nc2c1` [compound 1, Cis,cis-1,3,5-cyclohexanetribenzimidazole-2-yl], the Conversion [3, 8] is reported as roughly 18%.
